Experimental data taken from the kinase profiling compilation of Christmann-Franck et al. (2016).

Assays:
Test in all cases: radiometric filter-binding kinase assay
[1] = test system: AKT1 (human), P31749 [S473D]
AURKA (human) = AURKA (human) (UniProt O14965)
BRSK1 (human) = BRSK1 (human) (UniProt Q8TDC3)
BRSK2 (human) = BRSK2 (human) (UniProt Q8IWQ3)
BTK (human) = BTK (human) (UniProt Q06187)
CaMK1 (human) = CaMK1 (human) (UniProt Q14012)
DYRK2 (human) = DYRK2 (human) (UniProt Q92630)
DYRK3 (human) = DYRK3 (human) (UniProt O43781)
EPHA2 (human) = EPHA2 (human) (UniProt P29317)
EPHB1 (human) = EPHB1 (human) (UniProt P54762)
EPHB2 (human) = EPHB2 (human) (UniProt P29323)
EPHB4 (human) = EPHB4 (human) (UniProt P54760)
FLT1 (human) = FLT1 (human) (UniProt P17948)
GCK (human) = GCK (human) (UniProt Q12851)
HIPK1 (human) = HIPK1 (human) (UniProt Q86Z02)
HIPK2 (human) = HIPK2 (human) (UniProt Q9H2X6)
INSR (human) = INSR (human) (UniProt P06213)
JAK2 JH1 JH2 (human) = JAK2 JH1 JH2 (human) (UniProt O60674)
MAP2K1 (human) = MAP2K1 (human) (UniProt Q02750)
MAP3K1 (human) = MAP3K1 (human) (UniProt Q13233)
MAP3K11 (human) = MAP3K11 (human) (UniProt Q16584)
MAP3K5 (human) = MAP3K5 (human) (UniProt Q99683)
MAPK10 (human) = MAPK10 (human) (UniProt P53779)
MAPK11 (human) = MAPK11 (human) (UniProt Q15759)
MAPK8 (human) = MAPK8 (human) (UniProt P45983)
MAPK9 (human) = MAPK9 (human) (UniProt P45984)
MAPKAPK5 (human) = MAPKAPK5 (human) (UniProt Q8IW41)
MARK3 (human) = MARK3 (human) (UniProt P27448)
PIM1 (human) = PIM1 (human) (UniProt P11309)
PRKCA (human) = PRKCA (human) (UniProt P17252)
[2] = test system: RPS6KB1 (human), P23443 [T412E]
STK3 (human) = STK3 (human) (UniProt Q13188)
SYK (human) = SYK (human) (UniProt P43405)
TAOK1 (human) = TAOK1 (human) (UniProt Q7L7X3)
TBK1 (human) = TBK1 (human) (UniProt Q9UHD2)
YES1 (human) = YES1 (human) (UniProt P07947)
Chain of YES1 (human) (P07947 whole entry, looked up): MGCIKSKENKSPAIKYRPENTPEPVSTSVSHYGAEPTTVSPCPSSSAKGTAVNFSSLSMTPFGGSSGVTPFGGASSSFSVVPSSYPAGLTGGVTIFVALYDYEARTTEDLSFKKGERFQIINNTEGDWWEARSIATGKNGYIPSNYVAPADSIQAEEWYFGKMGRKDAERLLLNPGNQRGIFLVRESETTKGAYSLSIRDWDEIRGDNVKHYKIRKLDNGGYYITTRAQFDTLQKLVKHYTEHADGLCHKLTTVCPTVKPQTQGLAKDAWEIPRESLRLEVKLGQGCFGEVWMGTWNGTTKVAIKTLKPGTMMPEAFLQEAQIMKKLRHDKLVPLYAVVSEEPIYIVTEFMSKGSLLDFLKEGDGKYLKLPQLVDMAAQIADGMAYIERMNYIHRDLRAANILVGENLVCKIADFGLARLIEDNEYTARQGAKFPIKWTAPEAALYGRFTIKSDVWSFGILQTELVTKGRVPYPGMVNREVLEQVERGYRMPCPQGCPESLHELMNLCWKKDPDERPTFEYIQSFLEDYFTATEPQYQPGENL

Chain of CaMK1 (human) (Q14012 whole entry, looked up): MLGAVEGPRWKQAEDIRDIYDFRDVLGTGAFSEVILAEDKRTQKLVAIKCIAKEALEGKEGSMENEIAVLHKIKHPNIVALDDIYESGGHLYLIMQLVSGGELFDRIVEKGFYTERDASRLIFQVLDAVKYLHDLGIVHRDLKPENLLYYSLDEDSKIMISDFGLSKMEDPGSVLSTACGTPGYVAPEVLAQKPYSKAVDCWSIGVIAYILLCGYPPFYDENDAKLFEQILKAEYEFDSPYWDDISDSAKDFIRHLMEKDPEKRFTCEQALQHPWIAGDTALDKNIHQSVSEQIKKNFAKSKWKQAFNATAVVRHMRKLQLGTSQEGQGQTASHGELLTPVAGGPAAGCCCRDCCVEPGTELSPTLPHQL
Chain of AKT1 (human), P31749 [S473D] (P31749 whole entry S473D, looked up): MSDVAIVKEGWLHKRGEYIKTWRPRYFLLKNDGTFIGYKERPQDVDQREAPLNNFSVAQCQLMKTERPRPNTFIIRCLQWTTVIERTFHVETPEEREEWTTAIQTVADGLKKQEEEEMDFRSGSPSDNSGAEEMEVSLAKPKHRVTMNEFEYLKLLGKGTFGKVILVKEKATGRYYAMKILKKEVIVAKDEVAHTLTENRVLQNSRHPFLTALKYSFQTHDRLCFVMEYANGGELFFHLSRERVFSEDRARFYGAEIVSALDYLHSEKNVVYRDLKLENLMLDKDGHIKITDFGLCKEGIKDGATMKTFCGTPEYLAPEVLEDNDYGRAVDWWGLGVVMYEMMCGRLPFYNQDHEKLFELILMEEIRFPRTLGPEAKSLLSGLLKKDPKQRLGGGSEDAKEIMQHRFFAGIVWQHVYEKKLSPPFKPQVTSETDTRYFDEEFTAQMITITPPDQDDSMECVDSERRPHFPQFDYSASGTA
Chain of EPHA2 (human) (P29317 whole entry, looked up): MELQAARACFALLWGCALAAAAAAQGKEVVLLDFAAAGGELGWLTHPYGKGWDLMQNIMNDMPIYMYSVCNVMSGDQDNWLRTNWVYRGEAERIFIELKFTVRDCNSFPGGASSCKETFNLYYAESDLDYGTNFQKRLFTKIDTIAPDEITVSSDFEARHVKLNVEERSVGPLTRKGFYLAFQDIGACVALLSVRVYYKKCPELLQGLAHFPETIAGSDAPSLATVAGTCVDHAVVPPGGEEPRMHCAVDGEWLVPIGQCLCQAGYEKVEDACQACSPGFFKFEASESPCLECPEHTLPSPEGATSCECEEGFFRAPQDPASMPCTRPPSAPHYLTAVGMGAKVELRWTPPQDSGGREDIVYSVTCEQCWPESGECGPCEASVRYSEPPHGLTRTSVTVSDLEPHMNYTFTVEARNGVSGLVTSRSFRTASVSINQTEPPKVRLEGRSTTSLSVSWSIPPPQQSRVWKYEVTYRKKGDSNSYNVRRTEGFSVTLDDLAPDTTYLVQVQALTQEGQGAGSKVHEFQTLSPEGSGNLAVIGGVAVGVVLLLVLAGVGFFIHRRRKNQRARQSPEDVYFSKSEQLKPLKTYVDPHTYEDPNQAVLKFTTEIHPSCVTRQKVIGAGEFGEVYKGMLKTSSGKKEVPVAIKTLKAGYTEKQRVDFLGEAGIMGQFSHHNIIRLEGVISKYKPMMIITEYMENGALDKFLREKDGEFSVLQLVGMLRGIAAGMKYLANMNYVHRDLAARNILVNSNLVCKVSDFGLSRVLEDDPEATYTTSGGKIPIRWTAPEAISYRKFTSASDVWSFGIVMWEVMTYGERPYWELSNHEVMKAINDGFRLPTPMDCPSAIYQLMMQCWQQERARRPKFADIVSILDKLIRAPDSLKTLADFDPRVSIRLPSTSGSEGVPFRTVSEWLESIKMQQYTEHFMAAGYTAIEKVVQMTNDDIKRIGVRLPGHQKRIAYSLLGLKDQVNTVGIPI
Chain of PIM1 (human) (P11309 whole entry, looked up): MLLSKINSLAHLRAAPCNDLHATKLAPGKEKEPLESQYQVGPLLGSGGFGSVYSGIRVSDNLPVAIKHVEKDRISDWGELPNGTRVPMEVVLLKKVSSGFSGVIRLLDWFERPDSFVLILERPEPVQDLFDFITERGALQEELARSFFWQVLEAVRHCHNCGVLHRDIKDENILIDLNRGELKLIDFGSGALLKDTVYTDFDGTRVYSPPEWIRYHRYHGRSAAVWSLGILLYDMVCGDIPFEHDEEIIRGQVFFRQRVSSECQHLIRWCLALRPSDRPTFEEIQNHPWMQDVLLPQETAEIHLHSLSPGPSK
Chain of MAPK9 (human) (P45984 whole entry, looked up): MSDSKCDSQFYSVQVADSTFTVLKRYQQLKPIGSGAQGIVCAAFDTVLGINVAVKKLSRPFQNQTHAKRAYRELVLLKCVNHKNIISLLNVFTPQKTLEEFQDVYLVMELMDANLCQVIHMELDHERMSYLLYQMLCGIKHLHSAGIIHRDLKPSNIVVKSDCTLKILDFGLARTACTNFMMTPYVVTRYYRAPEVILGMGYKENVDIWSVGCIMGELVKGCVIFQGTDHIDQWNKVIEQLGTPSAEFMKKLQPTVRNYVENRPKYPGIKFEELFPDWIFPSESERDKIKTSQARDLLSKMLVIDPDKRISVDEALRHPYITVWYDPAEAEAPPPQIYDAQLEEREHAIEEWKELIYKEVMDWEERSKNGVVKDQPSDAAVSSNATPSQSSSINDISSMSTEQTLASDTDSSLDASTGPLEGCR
Chain of MAPK10 (human) (P53779 whole entry, looked up): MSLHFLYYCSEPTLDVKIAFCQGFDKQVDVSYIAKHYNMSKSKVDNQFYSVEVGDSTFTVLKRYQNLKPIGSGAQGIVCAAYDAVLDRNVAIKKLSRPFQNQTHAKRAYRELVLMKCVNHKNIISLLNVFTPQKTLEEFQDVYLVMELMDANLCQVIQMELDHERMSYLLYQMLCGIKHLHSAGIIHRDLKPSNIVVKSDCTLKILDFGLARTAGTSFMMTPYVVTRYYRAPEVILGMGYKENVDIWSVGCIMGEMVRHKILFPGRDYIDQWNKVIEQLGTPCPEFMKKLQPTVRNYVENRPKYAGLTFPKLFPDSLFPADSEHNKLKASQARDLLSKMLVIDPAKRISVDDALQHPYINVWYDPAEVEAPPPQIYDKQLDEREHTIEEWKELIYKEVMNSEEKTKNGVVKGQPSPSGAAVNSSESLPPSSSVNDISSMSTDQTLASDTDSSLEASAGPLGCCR
Chain of MAPKAPK5 (human) (Q8IW41 whole entry, looked up): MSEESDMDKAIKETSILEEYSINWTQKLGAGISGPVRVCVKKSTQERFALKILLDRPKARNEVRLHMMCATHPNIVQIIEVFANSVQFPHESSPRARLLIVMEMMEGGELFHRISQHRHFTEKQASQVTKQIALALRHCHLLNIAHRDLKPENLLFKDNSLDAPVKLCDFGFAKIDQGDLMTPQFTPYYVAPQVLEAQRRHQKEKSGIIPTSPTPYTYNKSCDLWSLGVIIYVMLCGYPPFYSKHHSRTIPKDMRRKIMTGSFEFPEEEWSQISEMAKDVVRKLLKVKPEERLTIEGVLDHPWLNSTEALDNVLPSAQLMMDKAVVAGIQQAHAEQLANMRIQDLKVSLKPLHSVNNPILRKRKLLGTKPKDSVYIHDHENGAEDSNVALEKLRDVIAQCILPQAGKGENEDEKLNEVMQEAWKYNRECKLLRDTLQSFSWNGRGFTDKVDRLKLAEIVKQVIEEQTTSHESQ

N#Cc1c(O)c2c(-c3ccc(-c4ccccc4O)cc3)csc2[nH]c1=O
residual activity ([1]; compound 10.0 µM): 94%
residual activity ([1]; compound 50.0 µM): 62%
residual activity ([1]; compound 100.0 µM): 78%
residual activity (AURKA (human); compound 10.0 µM): 93%
residual activity (AURKA (human); compound 100.0 µM): 64%
residual activity (BRSK1 (human); compound 10.0 µM): 76%
residual activity (BRSK1 (human); compound 100.0 µM): 51%
residual activity (BRSK2 (human); compound 10.0 µM): 64%
residual activity (BRSK2 (human); compound 50.0 µM): 63%
residual activity (BRSK2 (human); compound 100.0 µM): 28%
residual activity (BTK (human); compound 10.0 µM): 52%
residual activity (BTK (human); compound 100.0 µM): 10%
residual activity (CaMK1 (human); compound 10.0 µM): 68%
residual activity (CaMK1 (human); compound 50.0 µM): 45%
residual activity (CaMK1 (human); compound 100.0 µM): 7%
residual activity (DYRK2 (human); compound 10.0 µM): 63%
residual activity (DYRK2 (human); compound 50.0 µM): 84%
residual activity (DYRK2 (human); compound 100.0 µM): 33%
residual activity (DYRK3 (human); compound 10.0 µM): 54%
residual activity (DYRK3 (human); compound 50.0 µM): 47%
residual activity (DYRK3 (human); compound 100.0 µM): 6%
residual activity (EPHA2 (human); compound 10.0 µM): 82%
residual activity (EPHA2 (human); compound 50.0 µM): 64%
residual activity (EPHA2 (human); compound 100.0 µM): 40%
residual activity (EPHB1 (human); compound 10.0 µM): 110%
residual activity (EPHB1 (human); compound 100.0 µM): 97%
residual activity (EPHB2 (human); compound 10.0 µM): 93%
residual activity (EPHB2 (human); compound 100.0 µM): 13%
residual activity (EPHB4 (human); compound 10.0 µM): 82%
residual activity (EPHB4 (human); compound 100.0 µM): 49%
residual activity (FLT1 (human); compound 10.0 µM): 65%
residual activity (FLT1 (human); compound 100.0 µM): 11%
residual activity (GCK (human); compound 10.0 µM): 76%
residual activity (GCK (human); compound 100.0 µM): 14%
residual activity (HIPK1 (human); compound 10.0 µM): 74%
residual activity (HIPK1 (human); compound 100.0 µM): 35%
residual activity (HIPK2 (human); compound 10.0 µM): 99%
residual activity (HIPK2 (human); compound 50.0 µM): 58%
residual activity (HIPK2 (human); compound 100.0 µM): 19%
residual activity (INSR (human); compound 10.0 µM): 103%
residual activity (INSR (human); compound 100.0 µM): 69%
residual activity (JAK2 JH1 JH2 (human); compound 10.0 µM): 83%
residual activity (JAK2 JH1 JH2 (human); compound 100.0 µM): 32%
residual activity (MAP2K1 (human); compound 10.0 µM): 79%
residual activity (MAP2K1 (human); compound 50.0 µM): 27%
residual activity (MAP2K1 (human); compound 100.0 µM): 29%
residual activity (MAP3K1 (human); compound 10.0 µM): 26%
residual activity (MAP3K1 (human); compound 100.0 µM): 7%
residual activity (MAP3K11 (human); compound 10.0 µM): 43%
residual activity (MAP3K11 (human); compound 100.0 µM): 4%
residual activity (MAP3K5 (human); compound 10.0 µM): 140%
residual activity (MAP3K5 (human); compound 100.0 µM): 250%
residual activity (MAPK10 (human); compound 10.0 µM): 75%
residual activity (MAPK10 (human); compound 50.0 µM): 70%
residual activity (MAPK10 (human); compound 100.0 µM): 62%
residual activity (MAPK11 (human); compound 10.0 µM): 89%
residual activity (MAPK11 (human); compound 50.0 µM): 84%
residual activity (MAPK11 (human); compound 100.0 µM): 77%
residual activity (MAPK8 (human); compound 10.0 µM): 99%
residual activity (MAPK8 (human); compound 50.0 µM): 102%
residual activity (MAPK8 (human); compound 100.0 µM): 93%
residual activity (MAPK9 (human); compound 10.0 µM): 94%
residual activity (MAPK9 (human); compound 50.0 µM): 89%
residual activity (MAPK9 (human); compound 100.0 µM): 88%
residual activity (MAPKAPK5 (human); compound 10.0 µM): 52%
residual activity (MAPKAPK5 (human); compound 50.0 µM): 25%
residual activity (MAPKAPK5 (human); compound 100.0 µM): 15%
residual activity (MARK3 (human); compound 10.0 µM): 78%
residual activity (MARK3 (human); compound 50.0 µM): 87%
residual activity (MARK3 (human); compound 100.0 µM): 38%
residual activity (PIM1 (human); compound 10.0 µM): 26%
residual activity (PIM1 (human); compound 50.0 µM): 5%
residual activity (PIM1 (human); compound 100.0 µM): 7%
residual activity (PRKCA (human); compound 10.0 µM): 94%
residual activity (PRKCA (human); compound 50.0 µM): 60%
residual activity (PRKCA (human); compound 100.0 µM): 90%
residual activity ([2]; compound 10.0 µM): 78%
residual activity ([2]; compound 50.0 µM): 66%
residual activity ([2]; compound 100.0 µM): 38%
residual activity (STK3 (human); compound 10.0 µM): 60%
residual activity (STK3 (human); compound 50.0 µM): 36%
residual activity (STK3 (human); compound 100.0 µM): 20%
residual activity (SYK (human); compound 10.0 µM): 106%
residual activity (SYK (human); compound 50.0 µM): 36%
residual activity (SYK (human); compound 100.0 µM): 42%
residual activity (TAOK1 (human); compound 10.0 µM): 83%
residual activity (TAOK1 (human); compound 100.0 µM): 18%
residual activity (TBK1 (human); compound 10.0 µM): 67%
residual activity (TBK1 (human); compound 50.0 µM): 55%
residual activity (TBK1 (human); compound 100.0 µM): 29%
residual activity (YES1 (human); compound 10.0 µM): 96%
residual activity (YES1 (human); compound 50.0 µM): 13%
residual activity (YES1 (human); compound 100.0 µM): 16%
